Assay results reported in article PMC5824344 (ACS Chemical Biology, 2017).

Key:
[1] = biological target: T1, Rat liver ER α-glucosidase II (Rattus norvegicus, UniProt A0A8I6GFL3); test: Inhibition of isolated rat liver ER α-glucosidase II (α-p-nitrophenylglucoside substrate); format: biochemical; settings: isolated enzyme in vitro; read-out: IC50 with regard to GluII
T1 construct: Rat liver ER, II; from tissue; host or cells: liver of male Wistar rats
Procedure: (§1) 4 Enzyme Inhibition Assays
(§2) All rat enzymes were isolated from 18-week-old, male Wistar rats, while human lysosomal α-glucosidase was obtained in commercially available form from Sanoﬁ Genzyme. Inhibition of isolated glucosidases was evaluated as described previously. 3 Brieﬂy, maltase, isomaltase, sucrase, and cellobiase were used as partially puriﬁed tissue extracts. Inhibition assays for each enzyme were performed with the respective natural substrate, and release of d-glucose measured by Glucose B-test (Wako Diagnostics). Assays of rat ER α-glucosidase II and human lysosomal α-glucosidase inhibition were conducted with α-p-nitrophenylglucoside as substrate; 400 mm Na2CO3 was added to quench these reactions, and the extent of hydrolysis was evaluated as absorbance at 400 nm by spectrophotometer.
(§3) ER α-glucosidase I inhibition assays were performed using anthranilic acid-labelled Glc3Man7GlcNAc2 as substrate. After terminating the reaction with acetonitrile, protein was removed by cen-trifugation through a 10 kDa molecular weight cut oﬀ ﬁlter. The amount of hydrolysis was then quantiﬁed by normal phase high performance liquid chromatography analysis of unreacted substrate and product (Glc2Man7GlcNAc2).4
(§4) ER α-glucosidase II inhibition assays using native-like substrates were performed using an-thranilic acid-labelled Glc2Man7GlcNAc2 as substrate. After terminating the reaction with acetonitrile, protein was removed by centrifugation through a 10 kDa molecular weight cut oﬀ ﬁlter. The amount of hydrolysis was then quantiﬁed by normal phase high performance liq-uid chromatography analysis of unreacted substrate and both products (Glc1Man7GlcNAc2

[2] = biological target: Rat intestinal maltase; test: Inhibition of rat intestinal maltase (natural substrate, glucose release); format: biochemical; settings: for IC50: isolated enzyme in vitro, mean of three measurements, read-out: IC50, α-Glucosidase, Rat intestinal maltase
Procedure: as §1, §2, §3, §4

[3] = biological target: T2, Rat intestinal sucrase (Rattus norvegicus, UniProt P23739); test: Inhibition of rat intestinal sucrase (natural substrate, glucose release); format: biochemical; settings: for IC50: isolated enzyme in vitro, mean of three measurements, read-out: IC50, α-Glucosidase, Rat intestinal sucrase
T2 construct: from tissue; host or cells: intestine of male Wistar rats, partially purified extract
T2 sequence (P23739 whole entry): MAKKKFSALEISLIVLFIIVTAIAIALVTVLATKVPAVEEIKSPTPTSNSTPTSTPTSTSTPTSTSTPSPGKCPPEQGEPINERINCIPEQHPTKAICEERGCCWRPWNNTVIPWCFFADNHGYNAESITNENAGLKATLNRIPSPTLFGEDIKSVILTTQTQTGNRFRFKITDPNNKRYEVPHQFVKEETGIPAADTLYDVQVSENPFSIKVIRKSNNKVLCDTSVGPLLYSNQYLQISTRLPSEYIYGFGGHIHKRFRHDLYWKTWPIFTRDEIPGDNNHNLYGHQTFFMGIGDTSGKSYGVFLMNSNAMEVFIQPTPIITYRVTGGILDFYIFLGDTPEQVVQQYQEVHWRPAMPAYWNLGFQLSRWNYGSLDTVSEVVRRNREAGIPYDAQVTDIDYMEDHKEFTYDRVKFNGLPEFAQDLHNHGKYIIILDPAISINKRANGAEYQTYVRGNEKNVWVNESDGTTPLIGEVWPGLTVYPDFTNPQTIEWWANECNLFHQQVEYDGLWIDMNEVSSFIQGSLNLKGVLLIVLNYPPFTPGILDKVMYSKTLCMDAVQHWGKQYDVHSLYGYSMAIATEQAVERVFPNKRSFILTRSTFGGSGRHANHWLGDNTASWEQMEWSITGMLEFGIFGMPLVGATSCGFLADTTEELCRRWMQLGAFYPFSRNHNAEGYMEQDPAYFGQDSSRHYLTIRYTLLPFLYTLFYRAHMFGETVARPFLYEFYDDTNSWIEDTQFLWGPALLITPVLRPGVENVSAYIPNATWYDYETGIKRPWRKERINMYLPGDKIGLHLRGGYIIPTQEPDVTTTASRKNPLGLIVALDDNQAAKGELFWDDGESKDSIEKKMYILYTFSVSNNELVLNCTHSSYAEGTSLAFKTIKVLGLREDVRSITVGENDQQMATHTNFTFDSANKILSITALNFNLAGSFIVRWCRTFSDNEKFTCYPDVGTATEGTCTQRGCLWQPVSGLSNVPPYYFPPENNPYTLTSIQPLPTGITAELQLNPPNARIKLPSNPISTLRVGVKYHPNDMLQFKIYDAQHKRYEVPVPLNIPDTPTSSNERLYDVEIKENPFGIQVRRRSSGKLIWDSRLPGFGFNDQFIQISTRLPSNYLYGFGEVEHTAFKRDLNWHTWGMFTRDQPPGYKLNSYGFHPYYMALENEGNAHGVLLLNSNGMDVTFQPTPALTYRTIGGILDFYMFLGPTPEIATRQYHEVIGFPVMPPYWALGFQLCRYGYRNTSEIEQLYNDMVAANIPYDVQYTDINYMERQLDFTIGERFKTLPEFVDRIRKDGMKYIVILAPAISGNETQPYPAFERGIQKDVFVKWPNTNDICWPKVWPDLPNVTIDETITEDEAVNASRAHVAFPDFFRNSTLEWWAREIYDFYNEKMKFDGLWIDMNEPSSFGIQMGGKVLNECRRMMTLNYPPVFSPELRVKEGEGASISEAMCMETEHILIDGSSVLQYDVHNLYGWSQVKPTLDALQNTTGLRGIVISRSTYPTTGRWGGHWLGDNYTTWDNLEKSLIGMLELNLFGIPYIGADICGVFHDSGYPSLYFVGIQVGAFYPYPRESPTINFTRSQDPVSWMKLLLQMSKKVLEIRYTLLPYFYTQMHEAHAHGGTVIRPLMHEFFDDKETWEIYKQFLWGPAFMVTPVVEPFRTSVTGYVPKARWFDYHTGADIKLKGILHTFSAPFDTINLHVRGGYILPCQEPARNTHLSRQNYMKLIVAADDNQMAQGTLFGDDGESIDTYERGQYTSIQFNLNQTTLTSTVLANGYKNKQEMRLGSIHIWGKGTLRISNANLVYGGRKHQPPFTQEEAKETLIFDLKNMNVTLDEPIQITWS

[4] = test system: GluI and GluII in primary human monocyte-derived macrophages (MDMΦ); test: Free oligosaccharide (FOS) assay in primary monocyte-derived macrophages; format: cell-based; settings: naive MDMΦ
Procedure: (§5) 5 Cell and Virus Culture and Assays
(§6) 5.1 Culture of Cell Lines
(§7) The human hepatoma cell line Huh7.5 (Apath, LLC) was cultured in Dulbecco’s modiﬁed Eagle medium (DMEM) with Glutamax (Gibco) supplemented with 100 µg mL−1 strepto-mycin (Sigma), 100 U mL−1 penicillin (Sigma), 100 µm MEM non-essential amino acids (Gibco) and 10% (volume/volume, v/v) heat-inactivated (56 ◦C, 30 min) fetal calf serum (FCS, Seralab). The human monocytic cell line HL60 (ATCC), human T lymphocyte cell line Jurkat (ATCC), and human B lymphocyte cell line Raji (ATCC) were each maintained in RPMI 1640 media with Glutamax (Gibco) supplemented with 100 µg mL−1 streptomycin, 100 U mL−1 penicillin and 10% (v/v) FCS. […]
(§8) Cell viability was measured using the CellTiter 96 R© AQueous One Solution Cell Prolifera-tion MTA (3-(4,5-dimethylthiazol-2-yl)-5-(3-carboxymethoxyphenyl)-2-(4-sulfophenyl)-2H - […]
(§9) After a further one to two hour incubation, the absorbance at 490 nm was measured on a Molecular Devices SpectraMax M5 microplate reader. […]
(§10) Absorbances were averaged across replicates, and corrected for background by subtracting the value for media-only wells. Each drug treatment was then evaluated as a percentage of untreated cells. […]
FOS analysis was carried out as described previously. […] Before purifying the FOS, each sample was analyzed for protein content using the modiﬁed Bradford assay. […]

[5] = test system: GluI and GluII in human hepatoma Huh7.5 cells; test: Free oligosaccharide (FOS) assay in Huh7.5 cells; format: cell-based; settings: naive Huh7.5 cells, 48 h, 50 µm
Procedure: as §5, §6
as §7, with “FCS. The monkey kidney cell line LLC-MK2 (a gift from Armed Forces Research Institute of Medical Sciences, Thailand) was cultured in M199 media (Gibco) supplemented with 2 mm l-glutamine, 100 µg mL−1 streptomycin, 100 U mL−1 penicillin and 20% (v/v) FCS. Subsequently, these are referred to as growth media for each cell line. Unless otherwise indicated, all cell incubations were carried out at 37 ◦C and 5% CO2.” for “FCS.”
as §8, §9, §10
FOS analysis was carried out as described previously. […] Before purifying the FOS, each sample was analyzed for protein content using the modiﬁed Bradford assay. […] The labelled glycans were then analyzed by normal phase high performance liquid chromatography. Retention times and peak area were used to identify and quantify glycans, respectively, by comparison to standards of known identity and molar quantity. FOS quantities were normalized to protein levels.

T1 sequence (A0A8I6GFL3 33-944): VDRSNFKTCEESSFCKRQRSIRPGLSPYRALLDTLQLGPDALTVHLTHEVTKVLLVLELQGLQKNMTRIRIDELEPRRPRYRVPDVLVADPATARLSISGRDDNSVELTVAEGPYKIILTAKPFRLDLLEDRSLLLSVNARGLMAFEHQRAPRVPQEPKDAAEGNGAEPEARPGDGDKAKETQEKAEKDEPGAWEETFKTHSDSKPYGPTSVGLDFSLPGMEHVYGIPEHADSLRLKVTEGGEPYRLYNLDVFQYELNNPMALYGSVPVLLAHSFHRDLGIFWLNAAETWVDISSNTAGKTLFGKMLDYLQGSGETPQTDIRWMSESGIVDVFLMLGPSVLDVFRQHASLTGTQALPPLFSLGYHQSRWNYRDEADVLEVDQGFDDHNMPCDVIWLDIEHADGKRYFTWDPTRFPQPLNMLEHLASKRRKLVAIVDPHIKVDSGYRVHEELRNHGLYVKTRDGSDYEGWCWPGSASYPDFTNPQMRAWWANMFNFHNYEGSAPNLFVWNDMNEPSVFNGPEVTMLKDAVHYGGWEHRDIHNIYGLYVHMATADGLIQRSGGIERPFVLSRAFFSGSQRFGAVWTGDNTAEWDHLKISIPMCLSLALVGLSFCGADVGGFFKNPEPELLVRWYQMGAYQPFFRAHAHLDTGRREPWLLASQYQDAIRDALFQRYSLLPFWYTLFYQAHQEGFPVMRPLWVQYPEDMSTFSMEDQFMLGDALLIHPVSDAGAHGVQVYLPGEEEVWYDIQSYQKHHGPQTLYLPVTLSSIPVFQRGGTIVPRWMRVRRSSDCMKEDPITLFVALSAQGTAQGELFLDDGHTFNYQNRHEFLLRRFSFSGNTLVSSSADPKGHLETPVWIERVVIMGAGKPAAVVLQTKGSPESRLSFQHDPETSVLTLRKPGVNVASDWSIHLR
T1 sequence (A0A8I6ADW9 1-525 partner): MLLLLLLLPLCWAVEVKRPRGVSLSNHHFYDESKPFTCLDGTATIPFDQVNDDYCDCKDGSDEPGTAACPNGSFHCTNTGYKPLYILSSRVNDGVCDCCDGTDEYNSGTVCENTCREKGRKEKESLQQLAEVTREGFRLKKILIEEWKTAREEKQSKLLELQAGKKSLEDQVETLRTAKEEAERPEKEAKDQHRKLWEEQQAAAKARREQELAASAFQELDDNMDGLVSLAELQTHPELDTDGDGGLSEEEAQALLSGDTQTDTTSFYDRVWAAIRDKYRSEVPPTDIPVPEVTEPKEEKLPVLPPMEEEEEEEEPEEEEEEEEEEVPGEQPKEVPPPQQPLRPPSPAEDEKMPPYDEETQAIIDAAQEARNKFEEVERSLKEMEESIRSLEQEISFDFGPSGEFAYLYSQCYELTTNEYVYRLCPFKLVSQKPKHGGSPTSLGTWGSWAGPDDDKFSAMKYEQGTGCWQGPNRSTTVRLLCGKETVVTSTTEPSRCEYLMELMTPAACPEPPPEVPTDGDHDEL

Q: Which results are given for `CCCCN1CC(O)C(O)C(O)C1CO` [Compound 2, N-butyl-D-1-deoxynojirimycin, reference compound]?
A: IC50 [1]: 13 µM; IC50 [2]: 1.7 µM; IC50 [3]: 0.43 µM; glucosylated free oligosaccharides (FOS) observed after treatment [4]: mono- and triglucosylated FOS were observed; glucosylated free oligosaccharides (FOS) observed after treatment [5]: inhibits both enzymes

Q: What does the source list for `Cc1c(C)c2c(c(C)c1OCCCCCN1CC(O)C(O)C(O)C1CO)CCC(C)(CCCC(C)CCCC(C)CCCC(C)C)O2` (stereo not shown) [Compound 4, 5′-tocopheroxypentyl-DNJ]?
A: IC50 [1]: 9 µM; inhibition of intestinal maltase at the maximum tested concentration ([2]; 50 μM): less than 50%; IC50 [2]: > 50 µM; inhibition at 50 µM ([3]; 50 μM, read-out: inhibition of intestinal sucrase at the maximum tested concentration): < 50%; IC50 [3]: > 50 µM; glucosylated free oligosaccharides (FOS) observed after treatment [4]: Only monoglucosylated FOS accumulated; glucosylated free oligosaccharides (FOS) observed after treatment [5]: no glucosylated FOS were observed; glucosylated free oligosaccharides (FOS) observed after treatment ([5]; listed as ToP-DNJ 4): no glucosylated FOS were detected
